From patent publication US6962976B2, “Human TREK2, a stretch- and arachidonic acid-sensitive K+ channel activated by inhalational anesthetics and niluzole” (Centre National de la Recherche Scientifique-CNRS, priority 2000, dated 2005)
Values belong to the compound of their own block, whether it stands above or below them.

How the values were obtained:
[1] = molecular target: T1, TREK2 (Homo sapiens, UniProt P57789); experiment: Whole-cell patch-clamp of TREK2 currents in transfected COS cells; assay type: cell-based; conditions: for activation of TREK2 by fatty acids and lysophospholipids (in words): whole-cell current; for effect on TREK2 current in COS cells transfected with only TREK2: no receptor co-expressed
T1 construct: expressed in transfected cells; host or cells: COS cells
T1 sequence (P57789 1-538): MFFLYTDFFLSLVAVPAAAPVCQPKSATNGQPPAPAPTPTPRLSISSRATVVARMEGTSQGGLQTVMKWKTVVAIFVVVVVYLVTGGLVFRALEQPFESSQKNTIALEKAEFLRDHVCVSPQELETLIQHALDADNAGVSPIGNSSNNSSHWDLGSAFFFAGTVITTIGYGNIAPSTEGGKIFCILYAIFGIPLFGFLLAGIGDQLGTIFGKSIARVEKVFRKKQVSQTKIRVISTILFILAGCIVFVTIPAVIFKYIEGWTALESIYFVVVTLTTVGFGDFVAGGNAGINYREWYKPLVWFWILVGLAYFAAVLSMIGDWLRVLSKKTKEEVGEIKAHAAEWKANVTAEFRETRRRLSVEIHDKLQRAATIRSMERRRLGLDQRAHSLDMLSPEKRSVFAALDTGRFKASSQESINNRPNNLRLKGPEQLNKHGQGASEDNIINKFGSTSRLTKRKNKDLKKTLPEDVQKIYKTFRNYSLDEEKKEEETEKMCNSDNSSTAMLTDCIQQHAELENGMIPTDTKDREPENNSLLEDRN
Procedure: For inside-out patch recordings, pipettes were filled with the EXT solution and the bathing solution was the INT solution buffered either at pH 7.3 or at pH 5.6 in the internal acidosis experiments. Cells were continuously superfused with a microperfusion system during the experiment (0.2 ml per min) done at room temperature. A RK400 patch-clamp amplifier was used for whole-cell and single-channel recordings (Bio-Logic, Claix, France). Single-channel data were low-pass filtered at 5 KHz and digitized at 50 KHz using a DAT recorder (Bio-Logic, Claix, France). pClamp software was used to analyze whole-cell data and Biopatch software (Bio-Logic) to analyze single-channel data.
Concentrations of volatile anesthetics were adjusted from saturated solutions (isoflurane, 15.3 mM; halothane, 17.5 mM and chloroform, 66.6 mM) in saline at room temperature (16). Mechanical stimulation was applied through an open loop pressure generating system and monitored at the level of the patch pipette by a calibrated pressure sensor (17).

[2] = system: TREK2 co-expressed with mGluR2; experiment: Whole-cell TREK2 current, TREK2 co-expressed with Gi-coupled mGluR2 in COS cells; assay type: cell-based, human
Procedure: (§1) The voltage-clamp protocol consists of a voltage-ramp of 800 ms duration starting from a holding potential of −80 mV applied every 10 s. The current was monitored at +100 mV.
(§2) COS cells were seeded at a density of 20,000 cells per 35 mm dish, 24 h prior transfection. Cells were transiently transfected by the classical DEAE-dextran method with 0.2 μg of pIRES-CD8. TREK2 with or without mGluR1, mGluR2 or 5HT4sR expression vectors (a generous gift of Drs J P Pin and A Dumuis, Montpellier, France).
(§3) Transfected cells were visualized 48 h after transfection using the anti-CD8 antibody-coated beads method.
(§4) TREK2 was co-expressed with 5HT4sR, a Gs-coupled receptor. […] A third type of G-protein coupled receptor was co-expressed with TREK2. This receptor is the Gq-coupled mGluR1 receptor. […] The Gq-protein is commonly associated with activation of phospholipase C and the consequent production of diacylglycerol (DAG) and inositol 1,4,5-triphosphate (IP 3). Ultimately, DAG leads to activation of PKC and IP 3 to an increase of intracellular Ca^2+.

[3] = system: TREK2 co-expressed with 5HT4sR
Procedure: as §1, §2, §3, §4

[4] = molecular target: T2, TREK1 (Homo sapiens, UniProt O95069); conditions: cited from earlier work
T2 sequence (O95069 1-426): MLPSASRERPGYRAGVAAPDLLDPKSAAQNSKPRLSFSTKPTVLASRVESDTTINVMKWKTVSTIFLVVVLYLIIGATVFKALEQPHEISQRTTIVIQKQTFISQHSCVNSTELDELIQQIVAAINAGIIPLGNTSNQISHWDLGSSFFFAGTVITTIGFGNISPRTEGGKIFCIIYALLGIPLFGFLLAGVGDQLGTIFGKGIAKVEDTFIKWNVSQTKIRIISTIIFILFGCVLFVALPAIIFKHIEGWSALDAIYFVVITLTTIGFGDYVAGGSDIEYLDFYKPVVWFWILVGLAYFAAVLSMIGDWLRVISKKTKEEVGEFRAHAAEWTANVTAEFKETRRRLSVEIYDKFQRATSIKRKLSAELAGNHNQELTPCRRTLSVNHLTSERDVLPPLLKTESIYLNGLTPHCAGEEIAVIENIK

[5] = molecular target: T3, TRAAK (Homo sapiens, UniProt Q9NYG8); conditions: cited from earlier work
T3 sequence (Q9NYG8 1-393): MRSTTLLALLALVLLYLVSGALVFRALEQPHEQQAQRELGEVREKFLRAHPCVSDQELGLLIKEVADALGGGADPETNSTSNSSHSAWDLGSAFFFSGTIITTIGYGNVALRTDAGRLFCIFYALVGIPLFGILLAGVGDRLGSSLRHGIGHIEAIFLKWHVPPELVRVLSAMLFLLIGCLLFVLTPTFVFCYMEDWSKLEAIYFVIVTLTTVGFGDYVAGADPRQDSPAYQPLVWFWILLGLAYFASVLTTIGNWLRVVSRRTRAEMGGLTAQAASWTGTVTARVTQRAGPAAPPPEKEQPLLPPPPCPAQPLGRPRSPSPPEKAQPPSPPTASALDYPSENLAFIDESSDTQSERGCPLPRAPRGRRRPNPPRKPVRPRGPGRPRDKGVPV

[6] = 1 mM, 0 mV (voltage given for halothane only)

fold increase of TREK2 current ([1]; 10 μM, at 0 mV): 5.1±0.6 fold increase
Compound: lysophosphatidylinositol

Compound: [Ca+2] [Ca^2+]
inhibition of TREK2 (in words) ([1]; 1 μM in the recording pipette): nor the addition of Ca^2+ in the recording pipette (1 μM) were able to induce an inhibition

activation of TREK2 by fatty acids and lysophospholipids (in words) [1]: activated
Compound: lysophosphatidylcholine

activation of TREK2 by fatty acids and lysophospholipids (in words) [1]: activated
Compound: CCCCC/C=C\C/C=C\CCCCCCCC(=O)O [linoleic acid]

activation of TREK2 by fatty acids and lysophospholipids (in words) [1]: not
Compound: CCCCCCCCCCCCCCCC(=O)O [palmitic acid]

Compound: N[C@@H](CCC(=O)O)C(=O)O [glutamate]
effect on TREK2 current in COS cells transfected with only TREK2 [1]: No effect
effect on TREK2 activity after receptor activation [2]: stimulation of TREK2 activity
time to reverse the TREK2 increase after washing [2]: more than 10 minutes

Compound: NCCc1c[nH]c2ccc(O)cc12 [5-HT, 5-hydroxytryptamine]
effect on TREK2 current in COS cells transfected with only TREK2 [1]: No effect
effect on TREK2 activity after receptor activation [3]: decrease of TREK2 activity

Compound: CCCCCCCCCCCCCC(=O)O[C@@H]1[C@@H](C)[C@@]2(O)[C@@H](C=C(CO)C[C@]3(O)C(=O)C(C)=C[C@@H]23)[C@@H]2C(C)(C)[C@]12OC(C)=O [PMA]
inhibition of TREK2 (in words) ([1]; 100 nM): neither the application of the PKC-activator PMA (100 nM) nor the addition of Ca^2+ in the recording pipette (1 μM) were able to induce an inhibition

effect on TREK2 current (in words) ([1]; current monitored at +100 mV): activated
time course of TREK2 activation (in words) ([1]; followed by a decrease of the activity corresponding to an inhibition): transient
Compound: Nc1nc2ccc(OC(F)(F)F)cc2s1 [riluzole]
activation of TREK1 (in words) [4]: transiently activated
activation of TRAAK (in words) [5]: permanently activated

fold increase of TREK2 current [1, 6]: 1.9±0.1 fold increase
Compound: FC(F)OC(Cl)C(F)(F)F (centres unmarked) [isoflurane]

Compound: [Ba+2] [Ba^2+]
sensitivity of TREK2 currents ([1]; 1 mM): insensitive

inhibition at 100 µM ([1]; COS, 100 μM): 50%
Compound: C=C[C@H]1C[N@@]2CC[C@H]1C[C@@H]2[C@@H](O)c1ccnc2ccc(OC)cc12 [Quinidine]

fold increase of TREK2 current ([1]; 0.25 mM, at +100 mV, n=10): 1.4±0.1 fold increase
fold increase of TREK2 current ([1]; 0.5 mM, at +100 mV, n=10): 2.6±0.3 fold increase
fold increase of TREK2 current [1, 6]: 2.3±0.3 fold increase
Compound: FC(F)(F)C(Cl)Br (centres unmarked) [halothane]

Compound: ClC(Cl)Cl [chloroform]
fold increase of TREK2 current [1, 6]: 1.8±0.1 fold increase
relative efficiency of anesthetics on TREK1 ([4]; 1 mM): more effective than halothane and isoflurane

inhibition of TREK2 activity ([1]; 500 μM, at 0 mV, n=8): 50±5%
Compound: Nc1ncnc2c1nc(Sc1ccc(Cl)cc1)n2[C@@H]1O[C@@H]2COP(=O)(O)O[C@H]2[C@H]1O [CPT-cAMP]

Compound: CC[N+](CC)(CC)CC [tetraethylammonium]
sensitivity of TREK2 currents ([1]; 10 mM): insensitive

fold increase of TREK2 current ([1]; 10 μM, at 0 mV): 8.4±1.9 fold increase
Compound: CCCCC/C=C\C/C=C\C/C=C\C/C=C\CCCC(=O)O [arachidonic acid]
